Laboratory results from the supplement of paper PMC8671470.

How the values were obtained:
Conditions in all cases: 72 h
MOLM-13 [1] = test: cell viability (% survival relative to DMSO control, bortezomib = 0%); higher = less cytotoxic
Method in brief: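 Fifteen myeloid leukaemia cell lines (10 AML, 5 CML) were seeded at a density titrated to the linear growth range into 384-well plates pre-printed with compounds at 1, 10, 100, 1000 or 10000 nM in duplicate. Plates were incubated for 72 h at 37 °C with 5% CO2. Viability was then read by CellTiter-Glo luminescence. Each value is percent survival averaged over the duplicates, with vehicle set to 100% and a 10 µM positive control to 0%.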

KG-1 = test system: KG-1
Method in brief: (§1)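 The IC50 was derived from log-logistic dose–response fitting. Each of fifteen myeloid leukaemia cell lines, seeded in RPMI 1640 within its linear growth range, was exposed in 384-well plates to five tenfold doses (1 to 10,000 nM) in duplicate for 72 h at 37 °C and 5% CO2. Luminescent ATP viability readings were normalised to vehicle and to a positive control at 10 µM before four-parameter curve fitting.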

THP-1 = test system: THP-1
Method in brief: as §1

NOMO-1 = test system: NOMO-1
Method in brief: as §1

KU-812 = test system: KU-812
Method in brief: as §1

HEL = test system: HEL
Method in brief: as §1

BV-173 = test system: BV-173
Method in brief: as §1

MOLM-13 [2] = test system: MOLM-13
Method in brief: as §1

Mono-Mac-6 = test system: Mono-Mac-6
Method in brief: as §1

K-562 = test system: K-562
Method in brief: as §1

LAMA-84 = test system: LAMA-84
Method in brief: as §1

MV4-11 = test system: MV4-11
Method in brief: as §1

SHI-1 = test system: SHI-1
Method in brief: as §1

KCL-22 = test system: KCL-22
Method in brief: as §1

ML-2 = test system: ML-2
Method in brief: as §1

HL-60 = test system: HL-60
Method in brief: as §1

SMILES | cell viability (MOLM-13 [1]; 1 nM) [%] | cell viability (MOLM-13 [1]; 10 nM) [%] | cell viability (MOLM-13 [1]; 100 nM) [%] | cell viability (MOLM-13 [1]; 1000 nM) [%] | cell viability (MOLM-13 [1]; 10000 nM) [%] | IC50 (cell viability) (KG-1) [µM] | IC50 (cell viability) (THP-1) [µM] | IC50 (cell viability) (NOMO-1) [µM] | IC50 (cell viability) (KU-812) [µM] | IC50 (cell viability) (HEL) [µM] | IC50 (cell viability) (BV-173) [µM] | IC50 (cell viability) (MOLM-13 [2]) [µM] | IC50 (cell viability) (Mono-Mac-6) [µM] | IC50 (cell viability) (K-562) [µM] | IC50 (cell viability) (LAMA-84) [µM] | IC50 (cell viability) (MV4-11) [µM] | IC50 (cell viability) (SHI-1) [µM] | IC50 (cell viability) (KCL-22) [µM] | IC50 (cell viability) (ML-2) [µM] | IC50 (cell viability) (HL-60) [µM]
CC12CCC(O)CC1CCC1C2CCC2(C)C(C3=CC(=O)OC3)CCC12O (stereo not given) [Digitoxigenin] | 68.7 | 116 | 54.5 | 0.802 | -1.32 | 0.264 | 0.286 | 0.437 | 0.368 | 0.336 | 0.24 | 0.122 | 0.213 | 0.184 | 0.234 | 0.323 | 0.358 | 0.331 | 0.35 | 0.338
C1CCc2nnc(C34CC5CC(CC(C5)C3)C4)n2CC1 [MERCK-544] | 97.3 | 126 | 115 | 80.7 | 118 | > 10 | > 10 | > 10 | > 10 | > 10 | > 10 | > 10 | > 10 | > 10 | > 10 | > 10 | > 10 | > 10 | > 10 | > 10
Cc1c(-c2ccccc2)oc2c(C(=O)OCCN3CCCCC3)cccc2c1=O.Cl [Flavoxate] | 92.9 | 107 | 95.4 | 92.6 | 81.6 | > 10 | > 10 | > 10 | > 10 | > 10 | > 10 | > 10 | > 10 | > 10 | > 10 | > 10 | > 10 | > 10 | > 10 | > 10
CCCc1nn(C)c2c(O)nc(-c3cc(S(=O)(=O)N4CCN(C)CC4)ccc3OCC)nc12 [Sildenafil] | 101 | 112 | 96.3 | 125 | 106 | > 10 | > 10 | > 10 | > 10 | > 10 | > 10 | > 10 | > 10 | > 10 | > 10 | > 10 | > 10 | > 10 | > 10 | > 10
C[C@]12CC[C@H](O)CC1=CC[C@@H]1[C@@H]2CC[C@]2(C)C(c3cccnc3)=CC[C@@H]12 [Abiraterone] | 113 | 122 | 111 | 117 | 69.9 | > 10 | > 10 | > 10 | > 10 | > 10 | > 10 | > 10 | > 10 | > 10 | > 10 | > 10 | > 10 | > 10 | > 10 | > 10
C#Cc1cnc(O)nc1O [Eniluracil] | 75.5 | 108 | 114 | 91.4 | 104 | > 10 | > 10 | > 10 | > 10 | > 10 | > 10 | > 10 | > 10 | > 10 | > 10 | > 10 | > 10 | > 10 | > 10 | > 10
Cc1coc2c1C(=O)C(=O)c1c-2ccc2c(C)cccc12 [Tanshinone I] | 89.8 | 103 | 127 | 94.3 | 101 | > 10 | > 10 | > 10 | > 10 | > 10 | > 10 | > 10 | > 10 | > 10 | > 10 | > 10 | > 10 | > 10 | > 10 | > 10
c1ccc2c(c1)OCC(=C1NCCN1)O2 [Idazoxan] | 97.2 | 109 | 95.1 | 89.5 | 102 | > 10 | > 10 | > 10 | > 10 | > 10 | > 10 | > 10 | > 10 | > 10 | > 10 | > 10 | > 10 | > 10 | > 10 | > 10
Clc1ccc2c(c1Cl)CNCC2 | 102 | 125 | 70.3 | 92.3 | 83.7 | > 10 | > 10 | > 10 | > 10 | > 10 | > 10 | > 10 | > 10 | > 10 | > 10 | > 10 | > 10 | > 10 | > 10 | > 10
CCOC(=O)[C@H]1O[C@@H]1C(=O)N[C@@H](CC(C)C)C(=O)NCCC(C)C [Aloxistatin] | 102 | 109 | 116 | 96.1 | 62.8 | > 10 | > 10 | 5.52 | > 10 | > 10 | > 10 | > 10 | > 10 | > 10 | > 10 | > 10 | > 10 | > 10 | > 10 | > 10
Cc1noc2c1-c1ccccc1C(c1ccc(Cl)cc1)=N[C@H]2CC(N)=O [CPI-0610] | 74.3 | 88.2 | 73.5 | 5.96 | 3.86 | 0.135 | 0.765 | 0.349 | 0.422 | 1.52 | 0.538 | 0.274 | 0.142 | 0.377 | 1.59 | 0.146 | 0.5 | 0.624 | 1.26 | 0.2
Sc1ncnc2nc[nH]c12 [6-mercaptopurine] | 117 | 87.6 | 108 | 53 | 16 | > 10 | > 10 | 0.441 | 2.51 | 1.91 | 0.527 | 0.907 | 1.03 | 0.732 | 1.33 | 0.332 | 1.52 | 1.01 | 1.1 | 0.964
O=c1c2ccccc2[se]n1-c1ccccc1 [Ebselen] | 104 | 97.9 | 108 | 92.5 | 115 | > 10 | > 10 | > 10 | > 10 | > 10 | > 10 | > 10 | > 10 | > 10 | > 10 | > 10 | > 10 | > 10 | > 10 | > 10
CN(C/C=C/C#CC(C)(C)C)Cc1cccc2ccccc12 [Terbinafine] | 105 | 98.5 | 133 | 90.2 | 113 | > 10 | > 10 | > 10 | > 10 | > 10 | > 10 | > 10 | > 10 | > 10 | > 10 | > 10 | > 10 | > 10 | > 10 | > 10
OCCN1CCN(CCCN2c3ccccc3Sc3ccc(Cl)cc32)CC1 [Perphenazine] | 114 | 68.9 | 84 | 140 | 18.5 | 8.85 | > 10 | > 10 | 6.71 | > 10 | 5.91 | 5.77 | > 10 | 2.87 | 9.39 | 3.54 | > 10 | 8.23 | 7.38 | 5.06
O=C(c1ccc(OCCN2CCCCC2)cc1)c1c(-c2ccc(O)cc2)sc2cc(O)ccc12 [Raloxifene] | 79.1 | 82.2 | 106 | 83.2 | 77 | > 10 | > 10 | > 10 | > 10 | > 10 | > 10 | > 10 | > 10 | > 10 | > 10 | > 10 | > 10 | > 10 | > 10 | > 10
Cc1ccc(S(=O)(=O)NC2c3ccccc3Oc3ccccc32)cc1 [AH-7614] | 95.3 | 113 | 111 | 102 | 93.7 | > 10 | > 10 | > 10 | > 10 | > 10 | > 10 | > 10 | > 10 | > 10 | > 10 | > 10 | > 10 | > 10 | > 10 | > 10
C[C@]12O[C@H](C[C@]1(O)CO)n1c3ccccc3c3c4c(c5c6ccccc6n2c5c31)CNC4=O [Lestaurtinib] | 78.5 | 14.4 | -0.694 | 1.23 | -0.369 | 0.0227 | 0.848 | 0.188 | 0.0467 | 0.0504 | 0.0201 | 0.00461 | 0.0143 | 0.182 | 0.0512 | 0.00331 | 0.0633 | 0.149 | 0.139 | 0.0912
O=C(O)C(S)=Cc1c[nH]c2ccc(F)cc12 | 95.9 | 103 | 99.9 | 107 | 77.3 | > 10 | > 10 | > 10 | > 10 | > 10 | > 10 | > 10 | > 10 | > 10 | > 10 | > 10 | > 10 | > 10 | > 10 | > 10
O=C(O)CC[C@H](NC(=O)c1ccc([N+](=O)[O-])cc1)C(=O)O [(S)-2-(4-Nitrobenzamido)pentanedioic acid] | 89 | 124 | 94.6 | 98.5 | 105 | > 10 | > 10 | > 10 | > 10 | > 10 | > 10 | > 10 | > 10 | > 10 | > 10 | > 10 | > 10 | > 10 | > 10 | > 10
CC(/C=C1\SC(=S)N(CC(=O)O)C1=O)=C\c1ccccc1 [Epalrestat] | 120 | 106 | 106 | 99.1 | 110 | > 10 | > 10 | > 10 | > 10 | > 10 | > 10 | > 10 | > 10 | > 10 | > 10 | > 10 | > 10 | > 10 | > 10 | > 10
O=C(O)CCc1ccc(NCc2cccc(Oc3ccccc3)c2)cc1 [GW9508] | 98.9 | 91.7 | 92.1 | 89.6 | 104 | > 10 | > 10 | > 10 | > 10 | > 10 | > 10 | > 10 | > 10 | > 10 | > 10 | > 10 | > 10 | > 10 | > 10 | > 10
O=P(O)(O)C(O)(Cn1ccnc1)P(=O)(O)O [Zoledronic acid] | 99.2 | 117 | 103 | 84.5 | 99.8 | > 10 | > 10 | > 10 | > 10 | > 10 | > 10 | > 10 | > 10 | > 10 | > 10 | > 10 | > 10 | > 10 | > 10 | > 10
COc1cc2c(NC3CCN(C)CC3)nc(N3CCCN(C)CC3)nc2cc1OCCCN(C)C [UNC0224] | 104 | 111 | 92.7 | 104 | 71.1 | > 10 | > 10 | > 10 | > 10 | > 10 | > 10 | > 10 | > 10 | > 10 | > 10 | > 10 | > 10 | > 10 | > 10 | > 10
C=CCc1ccc2c(c1O)C(=O)c1ccccc1C2=O [R162] | 94 | 107 | 106 | 136 | 99.2 | > 10 | > 10 | > 10 | > 10 | > 10 | > 10 | > 10 | > 10 | > 10 | > 10 | > 10 | > 10 | > 10 | > 10 | > 10
C1CCC(C(CC2CCCCN2)C2CCCCC2)CC1.O=C(O)/C=C\C(=O)O (stereo not given) [Perhexiline] | 83.3 | 99.8 | 112 | 88.2 | 3.56 | 3.23 | 2.55 | 6.5 | 3.99 | 3.23 | 3.34 | 2.66 | 3.55 | 3.35 | 4.23 | 2.73 | 3.28 | 3.63 | 3.43 | 2.85
